Data reported in patent US7563592B2, “Alizarin-based chromogenic substrates, their uses and composition containing same” (Biomerieux, S.A., priority 1999, dated 2009).

Tests used:
[1] = test system: Citrobacter koseri 059; test: Comparison of glucoside substrates in semi-solid Columbia medium (Example 7); format: cell-based
[2] = test system: Enterococcus faecalis 117; test: as above; format: cell-based
[3] = test system: Klebsiella pneumoniae 023; test: as above; format: cell-based
[4] = test system: eight strains possessing β-galactosidase activity; test: Fluorescent check of β-galactosidase activity in the eight discordant strains (Example 2); format: cell-based; conditions: all eight strains that selectively hydrolyzed Alizarin-2-β-D-galactoside
Source text: The vast majority of strains (96.5%) reacted in exactly the same way—i.e. either positively or negatively—with both substrates. Eight strains selectively hydrolyzed Alizarin-2-β-D-galactoside. […] Therefore, these substrates are extremely sensitive and can be used at very low concentrations.

[5] = test system: Escherichia coli 115; test: β-galactosidase detection in semi-solid Columbia medium (Example 1); format: cell-based; conditions: 0.2 g/l, no iron citrate
[6] = test system: Klebsiella pneumoniae 023; test: as above; format: cell-based; conditions: 0.2 g/l, no iron citrate; 48 H
[7] = test system: Serratia marcescens 042; test: as above; format: cell-based; conditions: 0.2 g/l, no iron citrate
[8] = test system: eight (8) species tested; test: β-glucosidase detection in API strip wells, all species together (Example 6); format: cell-based; conditions: of the eight (8) species tested; 0.4 g/l
[9] = test system: Listeria monocytogenes 022; test: β-glucosidase detection in API strip wells (Example 6); conditions: 0.4 g/l
[10] = test system: Listeria ivanovii 018; test: as above; conditions: 0.4 g/l
[11] = test system: Listeria innocua 036; test: as above; conditions: 0.4 g/l
[12] = test system: Listeria seeligeri 080; test: as above; conditions: 0.4 g/l; 24 H
[13] = test system: Klebsiella pneumoniae 023; test: as above; conditions: 0.4 g/l
[14] = test system: Enterococcus faecium 009; test: as above; conditions: 0.4 g/l
[15] = 0.05 g/l + iron citrate 0.05 g/l, 18 H
[16] = 0.05 g/l + iron citrate 0.05 g/l, 24 H
[17] = 0.05 g/l + iron citrate 0.05 g/l, 48 H
[18] = 0.1 g/l + iron citrate 0.05 g/l, 18 H
[19] = 0.1 g/l + iron citrate 0.05 g/l, 24 H
[20] = 0.1 g/l + iron citrate 0.05 g/l, 48 H
[21] = 0.15 g/l, no iron citrate, 18 H
[22] = 0.15 g/l, no iron citrate, 24 H
[23] = 0.15 g/l, no iron citrate, 48 H

`O=C1c2ccccc2C(=O)c2c1ccc(O)c2O[C@@H]1O[C@H](CO)[C@@H](O)[C@H](O)[C@H]1O` [1-Alizarin1-β-D-glucoside, Alizarin-1-β-D-glucoside] was tested, and the Color [1, 15] was “Mauve”, the Intensity [1, 15] was 1.5 arbitrary units and the Color [1, 16] was “Mauve”. For the same molecule, the Intensity [1, 16] was 2 arbitrary units, the Color [1, 17] was “Mauve” and the Intensity [1, 17] was 2.5 arbitrary units. The Color [1, 18] was “Mauve”, the Intensity [1, 18] was 2.5 arbitrary units and the Color [1, 19] was “Mauve”. The Intensity [1, 19] was 3 arbitrary units, the Color [1, 20] was “Mauve” and the Intensity [1, 20] was 4 arbitrary units. For the same molecule, the Color [2, 15] was “Purple”, the Intensity [2, 15] was 3.5 arbitrary units and the Color [2, 16] was “Purple”. The Intensity [2, 16] was 4 arbitrary units, the Color [2, 17] was “Purple” and the Intensity [2, 17] was 4 arbitrary units. The Color [2, 18] was “Purple”, the Intensity [2, 18] was 3.5 arbitrary units and the Color [2, 19] was “Purple”. The Intensity [2, 19] was 4 arbitrary units, the Color [2, 20] was “Purple” and the Intensity [2, 20] was 4 arbitrary units. For the same molecule, the Color [3, 15] was “Purple”, the Intensity [3, 15] was 2.5 arbitrary units and the Color [3, 16] was “Purple”. For the same molecule, the Intensity [3, 16] was 3 arbitrary units, the Color [3, 17] was “Purple” and the Intensity [3, 17] was 3.5 arbitrary units. The Color [3, 18] was “Purple”, the Intensity [3, 18] was 3.5 arbitrary units and the Color [3, 19] was “Purple”. The Intensity [3, 19] was 4 arbitrary units, the Color [3, 20] was “Purple” and the Intensity [3, 20] was 4 arbitrary units.

`Cc1cc(=O)oc2cc(O[C@@H]3O[C@H](CO)[C@H](O)[C@H](O)[C@H]3O)ccc12` [4-Methylumbelliferyl-β-D-galactoside] was tested, and the “signal in the presence of the substrate” value [4] was “production of a fluorescent signal”.

`OC[C@H]1O[C@@H](Oc2c[nH]c3cc(Cl)ccc23)[C@H](O)[C@@H](O)[C@H]1O` [6-Chloro-3-indolyl-β-D-galactoside, reference compound] was tested, and the Color ([5]; 18 H) was “pink”, the Intensity ([5]; 18 H) was 3.5 and the Color ([5]; 24 H) was “pink”. For the same molecule, the Intensity ([5]; 24 H) was 3.5, the Color ([5]; 48 H) was “pink” and the Intensity ([5]; 48 H) was 3.5. For the same molecule, the Color [6] was “pink”, the Intensity [6] was 0.3 and the Color ([7]; 18 H) was “pink”. For the same molecule, the Intensity ([7]; 18 H) was 0.3, the Color ([7]; 24 H) was “pink” and the Intensity ([7]; 24 H) was 0.8. For the same molecule, the Color ([7]; 48 H) was “pink” and the Intensity ([7]; 48 H) was 3.5.

In the case of `OC[C@H]1O[C@@H](Oc2c[nH]c3cc(Cl)ccc23)[C@H](O)[C@@H](O)[C@@H]1O` [reference compound], the Color [1, 21] is reported as “Pink”, the Intensity [1, 21] is reported as 0.5 arbitrary units and the Color [1, 22] is reported as “Pink”. For the same molecule, the Intensity [1, 22] was 1 arbitrary units, the Color [1, 23] was “Pink” and the Intensity [1, 23] was 2 arbitrary units. The Color [2, 21] was “Pink”, the Intensity [2, 21] was 1.5 arbitrary units and the Color [2, 22] was “Pink”. For the same molecule, the Intensity [2, 22] was 2 arbitrary units, the Color [2, 23] was “Pink” and the Intensity [2, 23] was 2.5 arbitrary units. For the same molecule, the Color [3, 21] was “Pink”, the Intensity [3, 21] was 2 arbitrary units and the Color [3, 22] was “Pink”. The Intensity [3, 22] was 2.5 arbitrary units, the Color [3, 23] was “Pink” and the Intensity [3, 23] was 3 arbitrary units. For the same molecule, the “species in which activity was detected” value [8] was 6 species, the Color observed ([9]; 4 H) was “Pink” and the Color observed ([9]; 24 H) was “Pink”. For the same molecule, the Color observed ([10]; 4 H) was “Pink”, the Color observed ([10]; 24 H) was “Pink” and the Color observed ([11]; 4 H) was “Pink”. For the same molecule, the Color observed ([11]; 24 H) was “Pink”, the Color observed [12] was “Pink” and the Color observed ([13]; 4 H) was “Pink”. The Color observed ([13]; 24 H) was “Pink”, the Color observed ([14]; 4 H) was “Pink” and the Color observed ([14]; 24 H) was “Pink”.
